Assay results published in patent publication US10768157B2, “Materials and methods for the detection of trace amounts of substances in biological and environmental samples” (THE FLORIDA INTERNATIONAL UNIVERSITY BOARD OF TRUSTEES, priority 2015, dated 2020).
Where two headings read alike, the source gives them in different places.

Tests used:
[1] = Selectivity: imprinting factor of multi-template sol-gel MIP vs NIP; format: binding; conditions: extraction from protein precipitated milk
Protocol: The selectivity of MIP particles for the six sulfonamides was tested. For these experiments were used SPE cartridges packed with 30 mg of MIP and NIP particles respectively. Standard solutions containing 5 ng μL^−1 were passed through the SPE cartridges by holding imprinted or non-imprinted particles at a flow rate of 1 mL/min by the aid of a vacuum system. Several antibiotics have similar structure to the sulfonamides as well as antibiotics with different structure and functional groups were studied (chloramphenicol, thiamphenicol, florphenicol, flumequine, sulfisoxazole, sulfamethoxazole, sulfadimethoxine). The extraction on each antibiotic based on the optimum conditions and the extracted antibiotics were determined by the HPLC system. Imprinting factor (IF) of MIP particles was determined by the following equation: […] Capacity Studies […] So, SPE was prepared for MIP and NIP. Imprinting factor (IF), which is an indicators, express the adsorption affinity of recognition sites to the imprinted sulfonamides. Table 12 summarizes the IF values for the examined sulfonamides when extraction was carried out from protein precipitated milk.

[2] = Maximum adsorption capacity of the sol-gel molecularly imprinted sorbent (six sulfa drugs); format: binding; conditions: 30 mg MIP, mixture of 6 sulfa drugs 10-1000 mg/L
Protocol: In order to calculate the sorption capacity at equilibrium a SPE cartridge packed with 30 mg of MIP particles was used. Experiments under optimum conditions were carried out sequentially on the same SPE cartridge. In each subsequent test, the initial concentration was increased in a range 10-1000 ng μL^-1 and the final concentration was determined by HPLC-DAD. The amount of adsorbed (mg/g) was calculated by using the formula reported by Vanderborght and Van […]:00002} Were Ci is the initial concentration (mg/L), Ce is the equilibrium concentration (mg/L), V is the volume (L) and m is the mass (g) of the adsorbent. […] The final Ce concentrations were calculated on HPLC. The maximum capacity (Q, mg/g) for each of the six compounds was determined with the above equation. The results are represented in FIG. 12.

[3] = Selectivity study of CAP-imprinted sol-gel MIP vs sol-gel NIP in MIPSPE column (imprinting factor, selectivity coefficient), HPLC-UV; format: binding; conditions: for Selectivity Coefficient (SC): SC=IF CAP/IF other analyte, untreated raw milk; for Imprinting Factor (IF): extraction from untreated raw milk, sol-gel MIP vs NIP
Excerpt: To establish the selectivity of a sol-gel MIP for a particular analyte, a non-imprinted polymer (sol-gel NIP) is synthesized in the same way as sol-gel MIP but in the absence of the template.
The IF reflects the tendency of the MIP to selectively recognize and bind the template. Competitive adsorption of MIP and NIP for CAP was investigated in a MIPSPE column system. The IF and the selectivity coefficient (SC) are indicators of the adsorption affinity of recognition sites to the imprinted CAP.
The selectivity of sol-gel MIP particles for CAP was studied. For this purpose, 30 mg of sol-gel MIP or sol-gel NIP particles were packed in SPE cartridges. Aqueous sample solutions containing 10 ng/mL CAP was passed through the SPE cartridges holding imprinted or non-imprinted particles at a flow rate of 1 mL/min by the aid of a vacuum system. Elution of the extracted chloramphenicol was performed using methanol and the concentration of chloramphenicol was determined by the HPLC-UV method.
Imprinting factor (IF) of sol-gel MIP particles was determined by the following equation: IF=Kmip/Knip where Kmip and Knip are the partition coefficient of analyte for sol-gel MIP and sol-gel NIP, respectively, which are determined by K=Cb/Cu where Cb is the amount of CAP bound by the sol-gel MIP or sol-gel NIP and Cu is the concentration of free chloramphenicol that remained in the solution.
Selectivity coefficient (SC) was calculated by the following equation: SC=IFCAP/IFother_analyte

[4] = Retention (sorption) capacity of the CAP-imprinted sol-gel sorbent; format: binding; conditions: 30 mg polymer saturated with 100 mg/L CAP solution
Protocol: To determine the retention capacity (or sorption capacity) of the sol-gel derived CAP-imprinted polymer (maximum amount of the template retained by 1 g of MIP), 30 mg of polymer were saturated with CAP by passing several 5.0 mL aliquots of 100 mg/L CAP solution.

[5] = cited from earlier work
[6] = Stability of CAP standard solutions; format: physicochemical
[7] = Honey, Magnetic SPE, LC-MS/MS (ref a)

Molecule | Imprinting Factor (IF) [1] | Adsorption Capacity, Q [2] [mg/g] | Imprinting Factor (IF) [3] | further results
CC(=O)NS(=O)(=O)c1ccc(N)cc1 [Sulfacetamide] | 2.70 | 5.1 |  | 
Nc1ccc(S(=O)(=O)Nc2ncccn2)cc1 [Sulfadiazine] | 1.70 | 4.2 |  | 
Cc1ccnc(NS(=O)(=O)c2ccc(N)cc2)n1 [Sulfamerazine] | 1.13 | 3.7 |  | 
Nc1ccc(S(N)(=O)=O)cc1 [Sulfanilamide] | 1.56 |  |  | 
Nc1ccc(S(=O)(=O)Nc2nccs2)cc1 [Sulfathiazole] | 3.90 | 9.8 |  | 
CS(=O)(=O)c1ccc([C@@H](O)[C@@H](CO)NC(=O)C(Cl)Cl)cc1 [THF, thiamphenicol] |  |  | 1.9 | Selectivity Coefficient (SC) [3]: 2.6
Chloramphenicol [CAP] |  |  | 5 | Imprinting factor (IF), maximum ([3]; CAP, protein precipitated milk, MIP relative to NIP): 9.7; Retention capacity / adsorption capacity of CAP [4]: 23 mg/g; Retention capacity / adsorption capacity of CAP ([4]; listed as chloramphenicol): 23.0 mg/g; Imprinting Factor ([5]; Honey, MISPE, HPLC-UV (ref f)): 2.2; Adsorption Capacity [5, 7]: 5.53 mg/g; Imprinting Factor [5, 7]: 1.375; Imprinting Factor ([5]; Honey/Urine, MISPE, LC-MS/MS (ref d)): 2.43; Adsorption Capacity ([5]; Milk, MISPE, HPLC-UV (ref e)): 2.22 mg/g; Imprinting Factor ([5]; Milk, MISPE, HPLC-UV (ref e)): 1.38; Stability of working standard solutions ([6]; 0.05-20 ng/μL in water, refrigerated): stable for the same period of time; Stability of stock solution ([6]; 100 mg/L in water, kept at 4° C.): at least 3 months
Sulfamethizole | 4.52 |  |  | 
florfenicol [FFC] |  |  | 1.8 | Selectivity Coefficient (SC) [3]: 2.8
